According to PMC5442318, “Hundreds of dual-stage antimalarial molecules discovered by a functional gametocyte screen” (Nature Communications, 2017):
Where two headings read alike, the source gives them in different places.

Assays:
[1] = tested on: P. falciparum stage V female gametocytes; assay: P. falciparum female gametocyte activation assay (Pf FGAA), 24 h or 48 h preincubation, Pfs25 expression readout; type: cell-based, Plasmodium falciparum NF54; details: for Pf FGAA classification: SLOW / FAST / GAMETE from activity at 48h, 24h, 0h incubation
In short: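 Purified stage V gametocytes from P. falciparum NF54 gametocyte cultures were exposed to compounds for 24 h or 48 h at 37 °C under 3% O2/5% CO2, then activated by temperature drop plus xanthurenic acid. Activated females were stained with Cy3-anti-Pfs25 (0.5 μg ml^−1) for 24 h at 26 °C and counted by high-content imaging; pIC50 by nonlinear regression.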

[2] = tested on: P. falciparum female gametes; assay: Pf FGAA with compounds added 30 min after triggering gametocyte activation (gamete-targeting); type: cell-based, Plasmodium falciparum NF54; details: 0h incubation time
[3] = tested on: P. falciparum stages IV–V gametocytes; assay: Gametocytocidal ATP-depletion assay (gametocyte ATP bioluminescence); type: cell-based, Plasmodium falciparum; details: for inhibition at 2 µM: Plasmodium falciparum, mean
In short: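 Purified stage IV–V gametocytes (12,500/well) incubated with compound for 48 h at 37 °C under 3% O2/5% CO2. ATP measured by BacTiter-Glo luminescence as a viability surrogate; hits tested at 2 μM single concentration.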

HepG2 cells = assay: HepG2 cytotoxicity assay; type: cell-based
In short: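 After compound incubation, plates and CellTiter-Glo reagent were brought to room temperature for 30 min. The reagent was then added, and luminescence was read after a 10 min room-temperature stabilization.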

[4] = tested on: P. falciparum asexual blood stages; details: cited from earlier work; for IC50: read-out: Pf Asexual blood stages XC50
[5] = 24h incubation time, read-out: Pf FGAA IC50 (µM) 24h
[6] = P. falciparum female gametocytes, mean, read-out: Gametocytes mean Pf FGAA IC50
[7] = TCAMS asexual blood stage data, ref 1 (Gamo, F. J. et al., Nature 465, 305-310, 2010)
[8] = TCAMS data, ref 1 (Gamo, F. J. et al., Nature 465, 305-310, 2010)
[9] = mean, read-out: Gametocytes mean Pf FGAA IC50
[10] = TCAMS data, ref 1 (Gamo et al., 2010)
[11] = Plasmodium falciparum, 24h incubation time, read-out: Pf FGAA IC50 (µM) 24h
[12] = Plasmodium falciparum, P. falciparum female gametocytes, mean, read-out: Gametocytes mean Pf FGAA IC50
[13] = HepG2 TOX50 versus Pf FGAA IC50

| IC50 [1, 5] | IC50 [2] | IC50 [1, 9] | IC50 [1, 11] | IC50 [1, 12] | IC50 ([2]; Plasmodium falciparum) | IC50 ([1]; Plasmodium falciparum, mean, read-out: Gametocytes mean Pf FGAA IC50) | Compound | IC50 [1, 6] | Pf FGAA classification [1] | Gametocytes mean ATP inhibition at 2µM [3] | HepG2 cells mean TOX50 (HepG2 cells; HepG2 cells) | IC50 [4, 7] | Pf Asexual stages XC50 [4, 8] | Gametocytes mean ATP inhibition at 2µM (%) [3] | HepG2 cells mean TOX50 (HepG2 cells) | IC50 [4, 10] | inhibition at 2 µM [3] | Selectivity ratio (HepG2 cells; [13]) | Selectivity ratio (HepG2 cells; HepG2 TOX50 vs Pf FGAA IC50) |
| --- | --- | --- | --- | --- | --- | --- | --- | --- | --- | --- | --- | --- | --- | --- | --- | --- | --- | --- | --- |
| 5.88 µM | > 20 µM |  |  |  |  |  | N#Cc1ccc(-c2ccc(C(=O)NCC3CCN(CCN4CCC(c5ccc6c(c5OCC(N)=O)CCCC6)CC4)CC3)cc2)cc1 [TCMDC-134563] | 1.26 µM | SLOW | -20.83% | 6.17 µM | 0.44 µM | 0.44 µM |  |  |  |  |  |  |
| 1.86 µM | 14.4 µM | 0.73 µM |  |  |  |  | CCCCCCCN1CC[C@@H](CCCc2ccnc3ccc(OC)cc23)[C@@H](CNC)C1.O=C(O)C(=O)O [TCMDC-139875] |  | FAST |  |  |  | 0.21 µM | 9.45% | 5.89 µM | 0.21 µM |  |  |  |
| 17 µM | > 20 µM |  |  |  |  |  | Cc1ccc(C(C(=O)Nc2ccc(N3CCNCC3)c(Cl)c2)c2ccccc2)cc1 (stereo not shown) [TCMDC-134292] | 0.66 µM | SLOW | 19.42% | 11.89 µM | 0.84 µM | 0.84 µM |  |  |  |  |  |  |
|  |  |  | > 20 µM | 1.16 µM | > 20 µM |  | N#CC(c1ccc(Br)cc1)c1ccc2c(C(F)(F)F)cc(C(F)(F)F)nc2n1 (stereo not shown) [TCMDC-123754] |  | SLOW |  | 2.32 µM | 0.44 µM | 0.44 µM |  |  |  | -2.55% | 2.01 |  |
|  |  |  | 1 µM | 1.73 µM | 3.99 µM |  | CCCC(=O)NC(c1ccc(C)cc1)c1ccc2cccnc2c1O (stereo not shown) [TCMDC-123605] |  | FAST |  | 9.22 µM | 0.96 µM | 0.96 µM |  |  |  | 20.2% | 5.32 |  |
|  |  |  | 0.4 µM |  | 2.98 µM | 0.26 µM | Clc1ccc(Nc2nc(NCc3ccccc3)nc(N/N=C/c3ccccn3)n2)cc1 [TCMDC-138557] |  | FAST |  |  |  | 0.78 µM |  | 13.96 µM | 0.78 µM | 35.7% |  | 53.35 |
| 0.23 µM | 10.6 µM | 0.73 µM |  |  |  |  | CN(C)CCOc1ccc(NC(=O)NC(C)(C)c2nc(-c3ccc(Cl)c(O)c3)c(-c3ccncc3)[nH]2)cc1.Cl [TCMDC-140744] |  | FAST |  |  |  | 0.11 µM | -0.87% | 14.30 µM | 0.11 µM |  |  |  |
| 11.2 µM | > 20 µM | 1.96 µM |  |  |  |  | CN(/N=C/C=C/c1ccc(Cl)cc1)c1nc(NCCc2ccc(O)cc2)nc(N2CCNCC2)n1 [TCMDC-138546] |  | SLOW |  |  |  | 0.87 µM | -1.95% | 13.18 µM | 0.87 µM |  |  |  |

| Compound | IC50 [1, 5] | IC50 [2] | IC50 [1, 9] | IC50 [1, 11] | IC50 [1, 12] | IC50 ([2]; Plasmodium falciparum) | IC50 ([1]; Plasmodium falciparum, mean, read-out: Gametocytes mean Pf FGAA IC50) | IC50 [1, 6] | Pf FGAA classification [1] | Gametocytes mean ATP inhibition at 2µM [3] | HepG2 cells mean TOX50 (HepG2 cells; HepG2 cells) | IC50 [4, 7] | Pf Asexual stages XC50 [4, 8] | Gametocytes mean ATP inhibition at 2µM (%) [3] | HepG2 cells mean TOX50 (HepG2 cells) | IC50 [4, 10] | inhibition at 2 µM [3] | Selectivity ratio (HepG2 cells; [13]) | Selectivity ratio (HepG2 cells; HepG2 TOX50 vs Pf FGAA IC50) |
| --- | --- | --- | --- | --- | --- | --- | --- | --- | --- | --- | --- | --- | --- | --- | --- | --- | --- | --- | --- |
| O=C(O)C(F)(F)F.O=c1[nH]ccc2nc(N[C@@H]3CCNC3)nc(Nc3cc(Cl)cc(Cl)c3)c12 [TCMDC-135052] | 2.57 µM | 15.1 µM |  |  |  |  |  | 0.74 µM | SLOW | -43.72% | 4.79 µM | 0.74 µM | 0.74 µM |  |  |  |  |  |  |
| COc1cccc(-c2csc(C(=O)NCC3CCN(Cc4ccc(C(C)C)cc4)C3)c2)c1.O=C(O)C(F)(F)F (stereo not shown) [TCMDC-134439] | 3.22 µM | > 20 µM |  |  |  |  |  | 1.37 µM | SLOW | 2.89% | 11.51 µM | 1.39 µM | 1.39 µM |  |  |  |  |  |  |
| CN1CCN(CCCNCc2ccccc2-c2cccc(CNCc3ccc4c(c3)OCO4)c2)CC1.O=C(O)C(F)(F)F [TCMDC-140476] | 5.7 µM | > 20 µM | 1.64 µM |  |  |  |  |  | SLOW |  |  |  | 1.07 µM | -1.87% | 1.51 µM | 0.79 µM |  |  |  |
